Key:
sGC α1/β1 heterodimer = sGC α1/β1 heterodimer (Homo sapiens (Human), UniProt Q02108+Q02153); assay: Cell-based sGC functional assay (cyclic GMP assay for sGC activator: CASA assay); conditions: CHO-K1/sGC cells; for Emax: CHO-K1, activity expressed as percentage of compound A (standard), read-out: % Activation; for EC50: inflection point, 4P fit, read-out: IP
Text: Cell-Based sGC Functional Assay (Cyclic GMP Assay for sGC Activator: CASA Assay)
Soluble guanylate cyclase (sGC) is a heme-containing enzyme that converts GTP to secondary messenger cGMP. Increases in cGMP levels affect several physiological processes including vasorelaxation through multiple downstream pathways. […] Heme-dependent activators (HDAs) preferentially activate sGC containing a ferrous heme group. To determine the effect of sGC activators on enzyme activity, the CASA assay was developed to monitor the generation of cGMP in a cell line that stably expresses the heterodimeric sGC protein.
A CHO-K1 cell line stably expressing the sGC α1/β1 heterodimer was generated using a standard transfection protocol. CHO-K1 cells were transfected with plasmids pIREShyghsGCα1 and pIRESneo-hsGCβ1 simultaneously using FUGENE reagent. Clones that stably express both subunits were selected with hygromycin and neomycin for ˜2 weeks. Clone #7 was chosen for the assay and was designated CHO-K1/sGC. CHO-K1/sGC cells were maintained in F-K12 medium containing 10% heat-inactivated Fetal Bovine Serum (FBS), 100 μg/mL penicillin/streptomycin, 0.5 mg/mL hygromycin and 0.25 mg/mL G418. The cells were then cryopreserved in LN2. On the day of the assay, the cells were thawed and resuspended in EBSS Assay Buffer (Sigma, E3024) supplemented with 5 mM MgCl2, 10 mM HEPES (4-(2-hydroxyethyl)piperazine-1-ethanesulfonic acid) and 0.05% BSA (bovine serum albumin) (EAB) and cell density was then adjusted to 2.25×10^5/mL with EAB. IBMX (3-isobutyl-1-methylxanthin, 0.5 mM) was added to inhibit degradation of cGMP. Compounds were diluted from DMSO stock solutions and added to the assay at a final DMSO concentration of 2.5%. Cells were pre-incubated in the presence and absence of 1 μM of Diethylenetriamine/nitric oxide adduct (DETA-NO; Sigma, 17018) for 30 min at 25° C. Compounds are subsequently added and incubated for 1 hr at 37° C. At the end of the incubation period, the reaction was terminated and the cells were lysed with the detection reagents from Cisbio Kits. The level of intracellular cGMP was determined using an HTRF-based assay kit (CisBio, 62GM2PEC), which detects the displacement of a fluorescence labeled cGMP from its specific antibody. The cGMP produced by test compounds was directly compared to the maximum cGMP production (this value was set to equal 100% activation.) of the published sGC-HDA compound A:
(Example 1 in WO 2010/065275, published Jun. 10, 2010). The test compounds' activity were then expressed as a percentage of compound A, the standard in every experiment. This percent activation was calculated either in the presence or absence of DETA-NO which was then plotted. Inflection points (IP) and maximum fold induction was derived using Abase analysis software for 4P fit.

[1] = molecular target: human recombinant sGC enzyme (Homo sapiens (Human), UniProt Q02108+Q02153); assay: Size Exclusion Chromatography (SEC) competition binding assay using [3H] Ex-77B as the radioligand; conditions: [3H] Ex-77B radioligand, 24 hours at 37° C.
Protocol: Binding Assay: The binding potencies of sGC compounds to the human recombinant sGC enzyme were determined in a Size Exclusion Chromatography (SEC) competition binding assay using [^3H] Ex-77B as the radioligand. [^3H] Ex-77B was prepared using a standardardized tritium exchange procedure. The parent (non-labeled) molecule was first iodinated then a Pd-catalyzed iodine to tritium exchange provided the labeled compound. […] Assays were conducted in 96-well plates in a total volume of 200 μL. […] Non-specific binding was defined by competition with 1 μM of Ex-77B. After the incubation period, the binding mixtures were loaded onto the gel-filtration plate (ThermoFischer Cat. No. 89808) pre-equilibrated with binding buffer and spun at 1000×g for 3 min at 4° C. on a Bench top centrifuge. The collected eluates in White Frame Clear Well Isoplates (Perkin Elmer Cat #6005040) received 100 μl of UltimaGold scintillation cocktail. The sealed plates were shaken vigorously and span, and counted after 6 hours with a Wallac Microbeta TriLux 1450 LSC & Luminescence Counter (Perkin Elmer). Data from competition experiments were analyzed to determine Ki values using one site fit Ki equation.

Structure (SMILES) | Emax (sGC α1/β1 heterodimer) | EC50 (sGC α1/β1 heterodimer) | Ki [1]
CC(C)(Cc1coc(C2(C3CC3)C(=O)Nc3nc(-c4nn(Cc5ccccc5F)c5cc(F)ccc45)nc(N)c32)n1)C(=O)O (stereo not drawn) [Example 139B, 3-(2-{4-amino-5-cyclopropyl-2-[6-fluoro-1-(2-fluorobenzyl)-1H-indazol-3-yl]-6-oxo-6,7-dihydro-5H-pyrrolo[2,3-d]pyrimidin-5-yl}-1,3-oxazol-4-yl)-2,2-dimethylpropanoic acid] | 135% | 3460 nM | 0.114 nM
C[C@@]1(c2ccc(CCC(=O)O)cc2)C(=O)Nc2nc(-c3nn(CCCC(F)(F)F)c4nc(Cl)ccc34)nc(N)c21 [Example 19B, (S)-3-(4-{4-amino-2-[6-chloro-1-(4,4,4-trifluorobutyl)-1H-pyrazolo[3,4-b]pyridin-3-yl]-5-methyl-6-oxo-6,7-dihydro-5H-pyrrolo[2,3-d]pyrimidin-5-yl}phenyl)propanoic acid] | 89% | 1040 nM | 0.286 nM
CCCCn1nc(-c2nc(N)c3c(n2)NC(=O)C3(C)c2cn(CC(=O)O)nn2)c2ccc(Cl)cc21 (stereo not drawn) [Example 35B, 2-{4-[4-amino-2-(1-butyl-6-chloro-1H-indazol-3-yl)-5-methyl-6-oxo-6,7-dihydro-5H-pyrrolo[2,3-d]pyrimidin-5-yl]-1H-1,2,3-triazol-1-yl}acetic acid] | 102% | 2790 nM | 1.12 nM
C[C@@]1(c2ccc(CCC(=O)O)cc2)C(=O)Nc2nc(-c3nn(Cc4cccc(F)c4)c4cc(Cl)ccc34)nc(N)c21 [Example 69B, (S)-3-(4-{4-amino-2-[6-chloro-1-(3-fluorobenzyl)-1H-indazol-3-yl]-5-methyl-6-oxo-6,7-dihydro-5H-pyrrolo[2,3-d]pyrimidin-5-yl}phenyl)propanoic acid] | 139% | 289 nM | 0.101 nM
CC1CCC(Cn2nc(-c3nc(N)c4c(n3)NC(=O)[C@@]4(C)c3nc(CC(C)(C)C(=O)O)cs3)c3ccc(F)cc32)CC1 (single isomer, unassigned) [Example 136AA] | 78.2% | 11 nM | 0.252 nM
Cc1ccnc(Cn2nc(-c3nc(N)c4c(n3)NC(=O)[C@@]4(C)c3nc(CC(C)(C)C(=O)O)cs3)c3ccc(Cl)cc32)c1F [Example 216A, (S)-3-(2-{4-amino-2-[6-chloro-1-((3-fluoro-4-methyl-pyridin-2-yl)methyl)-1H-indazol-3-yl]-5-methyl-6-oxo-6,7-dihydro-5H-pyrrolo[2,3-d]pyrimidin-5-yl} 1,3-thiazol-4-yl)-2,2-dimethyl-propanoic acid] | 132% | 678 nM | 0.11 nM
Cc1oc(C2(C)C(=O)Nc3nc(-c4nn(Cc5ccccc5F)c5cc(Cl)ccc45)nc(N)c32)nc1CC(C)(C)C(=O)O (stereo not drawn) [Example 170B, 3-(2-{4-amino-2-[6-chloro-1-(2 fluorobenzyl)-1H-indazol-3-yl]-5-methyl-6-oxo-6,7-dihydro-5H-pyrrolo[2,3-d]pyrimidin-5-yl}-5-methyl-1,3-oxazol-4-yl)-2,2-dimethylpropanoic acid] | 130% | 655 nM | 0.118 nM
CC1(c2nc(-c3ccc(C(=O)O)cc3)cs2)C(=O)Nc2nc(-c3nn(Cc4ccccc4F)c4ncccc34)nc(N)c21 (stereo not drawn) [Example 147A, 4-(2-{4-amino-2-[1-(2-fluorobenzyl)-1H-pyrazolo[3,4-b]pyridin-3-yl]-5-methyl-6-oxo-6,7-dihydro-5H-pyrrolo [2,3-d]pyrimidin-5-yl}-1,3-thiazol-4-yl)benzoic acid] | 73.4% | 61 nM | 0.075 nM
CC1(c2ccc(/C=C/C(=O)O)cc2)C(=O)Nc2nc(-c3nn(CCC(F)(F)C(F)(F)F)c4cc(Cl)ccc34)nc(N)c21 (stereo not drawn) [Example 157A, (2E)-3-(4-{4-amino-2-[6-chloro-1-(3,3,4,4,4-penta-fluorobutyl)-1H-indazol-3-yl]-5-methyl-6-oxo-6,7-dihydro-5H-pyrrolo[2,3-d]pyrimidin-5-yl}phenyl)prop-2-enoic acid] | 143% | 185 nM | 0.258 nM
CC1(c2ccc(C(=O)O)cc2)C(=O)Nc2nc(-c3nn(Cc4ccccc4F)c4cc(Cl)ccc34)nc(N)c21 (stereo not drawn) [Example 209B, 4-{4-amino-2-[6-chloro-1-(2-fluorobenzyl)-1H-indazol-3-yl]-5-methyl-6-oxo-6,7-dihydro-5H-pyrrolo[2,3-d]pyrimidin-5-yl} benzoic acid] | 94.4% | 2480 nM | 1.64 nM
CC(C)(Cc1coc(C2(C)C(=O)Nc3nc(-c4nn(Cc5cccc(F)c5F)c5cc(Cl)ccc45)nc(N)c32)n1)C(=O)O (stereo not drawn) [Example 180A, 3-(2-{4-amino-2-[6-chloro-1-(2,3-difluorobenzyl)-1H-indazol-3-yl]-5-methyl-6-oxo-6,7-dihydro-5H-pyrrolo[2,3-d]pyrimidin-5-yl}-1,3-oxazol-4-yl)-2,2-dimethyl-propanoic acid] | 121% | 228 nM | 0.031 nM
CC(C)(Cc1csc(C2(C)C(=O)Nc3nc(-c4nn(CCC(F)(F)F)c5ncc(F)cc45)nc(N)c32)n1)C(=O)O (stereo not drawn) [Example 85A, 3-(2-{4-amino-2-[5-fluoro-1-(3,3,3-trifluoropropyl)-1H-pyrazolo[3,4-b]pyridin-3-yl]-5-methyl-6-oxo-6,7-dihydro-5H-pyrrolo[2,3-d]pyrimidin-5-yl}-1,3-thiazol-4-yl)-2,2-dimethylpropanoic acid] | 130% | 700 nM | 1.5 nM
CC(C)(Cc1csc([C@]2(C)C(=O)Nc3nc(-c4nn(Cc5ccccc5F)c5ncccc45)nc(N)c32)n1)c1nn[nH]n1 [Example 241A, (S)-4-amino-2-[1-(2-fluoro-benzyl)-1H-pyrazolo[3,4-b]pyridin-3-yl]-5-methyl-5-{4-[2-methyl-2-(2H-tetrazol-5-yl)propyl]-1,3-thiazol-2-yl}-5,7-dihydro-6H-pyrrolo[2,3-d] pyrimidin-6-one] | 94.8% | 403 nM | 0.121 nM
CC1(c2ccc(Cc3nn[nH]n3)cc2)C(=O)Nc2nc(-c3nn(Cc4ccccc4F)c4cc(Cl)ccc34)nc(N)c21 (stereo not drawn) [Example 244A, 5-{4-[(2H-tetrazol-5-yl)methyl]phenyl}-4-amino-2-[6-chloro-2-(2-fluorobenzyl)-1H-indazol-3-yl]-5-methyl-5,7-dihydro-6H-pyrrolo[2,3-d] pyrimidin-6-one] | 93.3% | 2730 nM | 0.063 nM
CC1(c2ccc(CCC(=O)O)cn2)C(=O)Nc2nc(-c3nn(Cc4ccccc4F)c4cc(Cl)ccc34)nc(N)c21 (stereo not drawn) [Example 129A, 3-(6-{4-amino-2-[6-chloro-1-(2-fluorobenzyl)-1H-indazol-3-yl]-5-methyl-6-oxo-6,7-dihydro-5H-pyrrolo[2,3-d]pyrimidin-5-yl}pyridin-3-yl)propanoic acid] | 98.5% | 51 nM | 0.117 nM
CC(C)(Cc1ccc(C2(C)C(=O)Nc3nc(-c4nn(CCCC(F)(F)F)c5ncccc45)nc(N)c32)cc1)C(=O)O (stereo not drawn) [Example 16B, 3-(4-{4-amino-5-methyl-6-oxo-2-[1-(4,4,4-trifluorobutyl)-1H-pyrazolo[3,4-b]pyridin-3-yl]-6,7-dihydro-5H-pyrrolo[2,3-d]pyrimidin-5-yl}phenyl)-2,2-dimethylpropanoic acid] | 96% | 1470 nM | 1.14 nM
